From US5032593A, “Method of treating bronchoconstriction with 1,3-unsymmetrical straight chain alkyl-substituted 8-phenylxanthines” (priority 1988, dated 1991)
Where two headings read alike, the source gives them in different places.

Experiments:
[1] = molecular target: T1, A2 - Adenosine receptor (Rattus norvegicus, UniProt P30543); test: Adenosine receptor binding, [3H]NECA, rat striatum homogenate; conditions: read-out: A2 - Adenosine receptor binding, Ki ± s.e.m.
T1 construct: rat striatum homogenate; from tissue; host or cells: rat striatum homogenate
Method: A similar procedure utilizing rat striatum homogenate and [^3 H]NECA as ligand was employed to measure A2 -adenosine receptor binding.
The inhibition constants (Ki values) were calculated using EBDA, a log-logit iterative curve fitting program [McPhearson, Comput. Prog.

[2] = Acute toxicity in mice; assay type: in vivo, mouse; conditions: for Acute Toxicity, Approximate lethal dose: i.p.'; for Acute Toxicity (comments): animals showing the side effect
[3] = test system: histamine-induced bronchoconstriction; test: Reversal of histamine-induced bronchoconstriction in anesthetized guinea pigs; assay type: in vivo, guinea pig; conditions: for ED50: Cavia porcellus, iv, read-out: Reversal of histamine-induced bronchoconstriction, guinea pigs, ED50 ± s.e.m. (N); for Reversal of histamine-induced bronchoconstriction, maximum effect, % (N) ± s.e.m.: maximum percent reversal, at highest dose
Method: Adult male guinea pigs, weighing […], were anesthetized with an intraperitoneal injection of urethane (1.5 gm/kg). After a midline neck incision, the carotid artery and jugular vein were cannulated using polyethylene tubing. The trachea was cannulated using a 15 gauge Leuer Stub. Animals were ventilated at a constant rate and volume (55 breaths per minute and 1 ml per […] body weight) using a Harvard Apparatus small animal respirator. Airway pressure was measured from a side port of the tracheal cannula, using a Statham pressure transducer. Airway pressure and blood pressure were recorded using a Gould physiograph. Body temperature was maintained with a Narco temperature control unit.
Baseline airway and blood pressures were recorded for ten minutes. Aerosolized histamine (0.01%) was then delivered to the airways via a DeVilbiss® ultrasonic nebulizer, inserted in-line between the respirator and the animal. After the histamine-induced bronchoconstriction reached a plateau, as evidenced by an increased airway pressure, a dose-response curve was determined for each compound. […] The maximum effect of each compound was determined from the reversal of bronchoconstriction, as the percent decrease in the bronchoconstrictor response, after administration of the highest dose of that compound.
The ED50 values and maximum effect (%) were calculated using SAS and PROBIT computer analysis. […] The maximum effect is the maximum percent reversal of histamine-induced bronchoconstriction produced by the test compound.

[4] = Cardiovascular effects (heart rate, blood pressure) in anesthetized guinea pigs; assay type: in vivo, guinea pig
Method: Aortic blood pressure was recorded from a pressure transducer and the signal was integrated to give a heart rate signal.
Each animal received a single intravenous injection of one compound. […] A group of control animals received injections of vehicle only. Changes in heart rate and blood pressure from pre-injection baseline values produced by drugs or vehicle were compared.

[5] = test system: antigen-induced bronchoconstriction; test: Prevention of antigen-induced bronchoconstriction in ovalbumin-sensitized guinea pigs; assay type: in vivo, guinea pig; conditions: 10 mg/kg, i.v., peak airway pressure increase as percent of vehicle animals
Source text: Prevention of antigen-induced bronchoconstriction Male Hartley guinea pigs were given two intraperitoneal injections each containing 50 mcg ovalbumin in a 2:1 emulsion of Freund's complete adjuvant and sterile saline, for a total of 100 mcg ovalbumin per animal. At least three weeks post sensitization injection, sensitized guinea pigs (now approximately 400-600 g) were anesthetized with an intraperitoneal injection of urethane. The carotid artery, jugular vein and the trachea were cannulated. […] Airway pressure was measured and aortic blood pressure was monitored. Body temperature was maintained.
Following a stabilization period of approximately ten minutes, drug in vehicle or vehicle alone was administered intravenously in a volume of 1 ml. All drugs were tested at a dose of 10 mg/kg. One minute post injection, ovalbumin (10 mg/ml) was aerosolized into the airway via a DeVilbiss® ultrasonic nebulizer for a thirty minute period. Peak airway pressure attained during this thirty minute period was measured.

[6] = Emetic effects in ferrets; assay type: in vivo, ferret; conditions: 100 mg/kg
Method: Male ferrets, 12-15 weeks old, were fasted overnight prior to experimentation. Animals were given intraperitoneal injections of 100 mg/kg of compound or were dosed with vehicle for controls. Animals were then placed in cages with feed and water and observed for signs of emesis.

[7] = molecular target: T2, A1 - Adenosine receptor (Rattus norvegicus, UniProt P25099); test: Adenosine receptor binding, [3H]cyclohexyladenosine, rat cortical membranes; conditions: [3H]CHA, 23° C., pH 7.4, read-out: A1 - Adenosine receptor binding, Ki ± s.e.m.
T2 construct: rat cortical tissue was homogenized in ice cold 50 mM Tris HCl buffer; from tissue; host or cells: rat cerebral cortex membranes
T2 sequence (P25099 1-326): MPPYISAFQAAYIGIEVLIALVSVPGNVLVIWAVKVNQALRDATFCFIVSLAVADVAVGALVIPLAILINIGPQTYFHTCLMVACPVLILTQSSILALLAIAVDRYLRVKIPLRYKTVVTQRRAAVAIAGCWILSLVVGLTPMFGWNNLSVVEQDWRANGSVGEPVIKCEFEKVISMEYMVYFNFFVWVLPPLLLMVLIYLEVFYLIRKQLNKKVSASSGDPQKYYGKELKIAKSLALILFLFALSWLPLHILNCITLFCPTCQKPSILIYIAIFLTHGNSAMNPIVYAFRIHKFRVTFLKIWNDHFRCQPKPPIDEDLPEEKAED
Method: Briefly, rat cortical tissue was homogenized in ice cold 50 mM Tris HCl buffer (pH 7.4) using a Brinkman Polytron®. The homogenate was centrifuged at 48,000×g for 10 minutes and the resulting tissue pellet was suspended in fresh cold buffer to yield a tissue concentration of 10 mg (wet weight)/ml. […] Following this incubation, the tissue suspension was centrifuged as before and the resulting pellet was suspended in fresh buffer at a concentration of 7-10 mg tissue (wet weight)/ml. […] Dose-inhibition curves were generated with 10-12 concentrations of the test compound using triplicate incubations. The inhibition constants (Ki values) were calculated using EBDA, a log-logit iterative curve fitting program [McPhearson, Comput. Prog.

[8] = Solubility at the dose intended for the cardiovascular test; assay type: physicochemical; conditions: dose for guinea pig i.v. cardiovascular test
[9] = test system: phosphodiesterase; conditions: cited from earlier work
[10] = guinea pigs, i.v., dose required to reverse the histamine response by 50%
[11] = guinea pigs, i.v., 2 × histamine-reversal ED50

T1 sequence (P30543 whole entry): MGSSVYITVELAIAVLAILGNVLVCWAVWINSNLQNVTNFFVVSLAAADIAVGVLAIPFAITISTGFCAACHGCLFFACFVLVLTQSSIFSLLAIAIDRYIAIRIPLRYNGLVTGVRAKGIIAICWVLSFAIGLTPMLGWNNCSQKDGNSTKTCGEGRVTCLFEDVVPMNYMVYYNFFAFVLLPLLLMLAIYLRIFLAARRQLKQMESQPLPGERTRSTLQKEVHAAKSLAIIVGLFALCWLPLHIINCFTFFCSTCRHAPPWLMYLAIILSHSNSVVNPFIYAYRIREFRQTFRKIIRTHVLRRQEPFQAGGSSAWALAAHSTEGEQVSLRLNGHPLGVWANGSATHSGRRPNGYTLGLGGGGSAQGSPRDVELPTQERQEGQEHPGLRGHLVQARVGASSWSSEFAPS

SMILES | Ki [1] | Acute Toxicity, Approximate lethal dose ([2]; N 3, route head 'p.o.) | Acute Toxicity (comments) [2] | ED50 [3] | Reversal of histamine-induced bronchoconstriction, maximum effect, % (N) ± s.e.m. ([3]; guinea pigs, i.v.) | % Basal blood pressure (mm Hg) ([4]; guinea pig, in vivo, iv) | % Basal heart rate (N) ([4]; guinea pig, in vivo, iv) | Prevention of antigen-induced bronchoconstriction, % control [5] | Emetic effects, episodes/responder ± s.e. ([6]; ferrets, i.p., 1 hour) | Emetic effects, no. responding / no. tested in 1 hour ([6]; in vivo, ip) | Ki [7] | ED50 [3, 10] | solubility at 2 × ED50 [8] | % Basal blood pressure (mm Hg) [4, 11] | % Basal heart rate (N) [4, 11] | Acute Toxicity, Approximate lethal dose ([2]; second printed line of values, N 6, route head 'p.o.) | Emetic effects, no. responding / no. tested in 1 hour ([6]; ferrets, i.p., 1 hour) | inhibition of phosphodiesterase [9]
Cn1c(=O)c2[nH]c(-c3ccccc3)nc2n(C)c1=O [1,3-Dimethyl-8-phenylxanthine] | 644 ± 144 nM | < 250 mg/kg | sedation 3/3 | > 50 mg/kg | 22.0 ± 3.9% | 94 ± 22% | 102 ± 9% | 71.7 ± 1.6 % control | 0 episodes/responder | 0/4 |  |  |  |  |  |  |  | 
CCCn1c(=O)c2[nH]c(-c3ccccc3)nc2n(CCC)c1=O [1,3-Dipropyl-8-phenylxanthine] | 116 ± 100 nM | > 250 mg/kg |  |  | 33.8 ± 8.5% |  |  | 98.1 ± 12.4 % control |  |  | 2.75 ± 0.29 nM | > 50 mg/kg | insoluble |  |  |  |  | 
CCCn1c(=O)n(C)c(=O)c2[nH]c(-c3ccccc3)nc21 [1-Methyl-3-propyl-8-phenylxanthine, 1-Methyl-3-n-propyl-8-phenylxanthine] | 93 ± 10.2 nM | > 250 mg/kg |  |  | 56.3 ± 3.2% |  |  | 106.5 ± 9.7 % control |  |  | 6.3 ± 0.17 nM | 16.9 ± 2 mg/kg |  | 86 ± 10% | 104 ± 4% |  |  | 
CCCn1c(=O)c2[nH]c(-c3ccccc3)nc2n(C)c1=O [3-Methyl-1-propyl-8-phenylxanthine, 3-Methyl-1-n-propyl-8-phenylxanthine] | 553 ± 55.7 nM | > 500 mg/kg | sedation 6/6 |  | 79.0 ± 3.4% |  |  | 36.5 ± 2.0 % control | 2 episodes/responder |  |  | 2.1 ± 0.4 mg/kg |  | 134% | 100 ± 3% | 250 to 500 mg/kg | 2/8 | 
CC(C)Cn1c(=O)n(C)c(=O)c2[nH]cnc21 [IBMX, 3-isobutyl-1-methylxanthine] |  |  |  |  |  |  |  |  |  |  |  |  |  |  |  |  |  | potent inhibitors of phosphodiesterase
Cn1c(=O)c2[nH]cnc2n(C)c1=O [Theophylline] |  |  | seizures 6/6 | 35.1 ± 5.3 mg/kg | 72.8 ± 6.6% |  |  |  | 10.7 ± 3.7 episodes/responder |  |  |  |  | 66 ± 8% | 132 ± 4% |  | 7/8 | 
